ChEMBL document CHEMBL1201862, “PubChem BioAssay data set” (2004)
Activity calls are given as the source filed them.

Key:
[1] = MIN6 cell viability loss – mouse insulinoma, cytotoxicity control, dose response (AID 2122); type: functional;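 note: confirmatory high-throughput counterscreen run to flag cytotoxic compounds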
Protein RecA = molecular target: T1, Protein RecA (Mycobacterium tuberculosis, UniProt P9WHJ3); assay: Fluorescence Cell-Free Homogeneous Dose Retest to Identify Inhibitors of RecA-Intein Splicing Activity. [Related pubchem assays (depositor defined):AID2097, AID2223, AID489010, AID492950]; type: functional
T1 sequence (P9WHJ3 whole entry): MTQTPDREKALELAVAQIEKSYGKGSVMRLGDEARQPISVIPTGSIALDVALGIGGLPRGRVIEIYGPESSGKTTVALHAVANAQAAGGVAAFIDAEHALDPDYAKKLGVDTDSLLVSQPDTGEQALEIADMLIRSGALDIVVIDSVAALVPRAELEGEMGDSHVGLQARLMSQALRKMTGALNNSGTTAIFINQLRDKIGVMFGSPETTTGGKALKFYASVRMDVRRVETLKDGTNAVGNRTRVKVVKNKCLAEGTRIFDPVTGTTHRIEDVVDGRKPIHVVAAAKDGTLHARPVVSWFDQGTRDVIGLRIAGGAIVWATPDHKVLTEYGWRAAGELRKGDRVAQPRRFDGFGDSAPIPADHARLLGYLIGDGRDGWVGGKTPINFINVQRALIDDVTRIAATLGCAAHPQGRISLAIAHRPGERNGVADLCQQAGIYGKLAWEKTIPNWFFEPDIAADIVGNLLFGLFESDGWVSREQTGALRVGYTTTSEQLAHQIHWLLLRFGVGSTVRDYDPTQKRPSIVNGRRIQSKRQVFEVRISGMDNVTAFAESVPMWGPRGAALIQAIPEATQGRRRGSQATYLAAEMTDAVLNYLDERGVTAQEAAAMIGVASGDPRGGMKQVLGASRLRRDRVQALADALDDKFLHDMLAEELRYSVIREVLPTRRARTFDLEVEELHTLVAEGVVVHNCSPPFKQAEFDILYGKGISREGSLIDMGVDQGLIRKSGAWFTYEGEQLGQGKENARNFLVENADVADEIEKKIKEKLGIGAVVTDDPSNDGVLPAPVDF

[2] = decrease of insulin promoter-GFP reporter – imaging, high-content screening, mouse beta cells (AID 1628); type: functional; settings: MIN6
[3] = molecular target: T2, Replicative DNA helicase DnaB (Mycobacterium tuberculosis, UniProt P9WMR3); assay: DnaB intein splicing inhibitors, dose response, biochemical, cell-free fluorescence (AID 449749); type: functional
T2 sequence (P9WMR3 whole entry): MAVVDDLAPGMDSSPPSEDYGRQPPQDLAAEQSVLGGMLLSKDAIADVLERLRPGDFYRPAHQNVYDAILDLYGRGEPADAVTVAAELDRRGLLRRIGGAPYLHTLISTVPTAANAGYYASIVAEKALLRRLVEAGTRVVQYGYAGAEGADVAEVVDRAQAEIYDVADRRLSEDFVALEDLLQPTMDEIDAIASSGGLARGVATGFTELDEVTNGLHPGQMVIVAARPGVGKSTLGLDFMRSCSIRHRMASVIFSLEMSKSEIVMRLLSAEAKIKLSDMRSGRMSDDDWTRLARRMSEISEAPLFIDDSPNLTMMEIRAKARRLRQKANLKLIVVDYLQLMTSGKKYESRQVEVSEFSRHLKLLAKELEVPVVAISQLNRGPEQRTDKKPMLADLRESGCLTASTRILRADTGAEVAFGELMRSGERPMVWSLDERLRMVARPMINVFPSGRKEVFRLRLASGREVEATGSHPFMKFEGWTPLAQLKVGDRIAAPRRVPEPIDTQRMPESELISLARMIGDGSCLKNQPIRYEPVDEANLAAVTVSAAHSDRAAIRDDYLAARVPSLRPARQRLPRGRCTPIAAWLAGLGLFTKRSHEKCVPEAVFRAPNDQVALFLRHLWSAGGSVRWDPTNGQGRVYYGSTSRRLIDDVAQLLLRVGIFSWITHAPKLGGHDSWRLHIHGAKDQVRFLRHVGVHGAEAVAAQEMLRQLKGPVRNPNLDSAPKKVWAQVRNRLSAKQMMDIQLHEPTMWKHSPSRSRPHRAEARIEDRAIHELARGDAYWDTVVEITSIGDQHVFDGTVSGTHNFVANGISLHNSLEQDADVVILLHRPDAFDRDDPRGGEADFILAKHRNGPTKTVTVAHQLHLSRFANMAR

[4] = molecular target: T3, Ubiquitin-conjugating enzyme E2 N (Homo sapiens, UniProt P61088); type: functional;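 note: Dose-response confirmation in a TR-FRET assay detecting UBC13-driven polyubiquitin chain formation, inhibition measured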
T3 sequence (P61088 whole entry): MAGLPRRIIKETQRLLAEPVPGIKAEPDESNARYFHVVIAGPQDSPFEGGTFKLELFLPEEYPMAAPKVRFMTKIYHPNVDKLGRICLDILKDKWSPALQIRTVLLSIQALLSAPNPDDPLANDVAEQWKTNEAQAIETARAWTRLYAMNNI

[5] = molecular target: Sphingosine 1-phosphate receptor 2 (Homo sapiens, UniProt O95136); assay: Dose Response Cell Based Assay for Agonists of the S1P2 Receptor. [Related pubchem assays: 729, 736, 843 ]; type: functional
Aminopeptidase N = molecular target: T4, Aminopeptidase N (Plasmodium falciparum FcB1/Columbia, UniProt O96935); assay: malaria alanyl aminopeptidase activity blockers – biochemical, fluorogenic H-Leu-NHMec substrate, 1536-well (AID 1445); design: species or system Plasmodium falciparum 3D7, 3D7
T4 sequence (O96935 whole entry): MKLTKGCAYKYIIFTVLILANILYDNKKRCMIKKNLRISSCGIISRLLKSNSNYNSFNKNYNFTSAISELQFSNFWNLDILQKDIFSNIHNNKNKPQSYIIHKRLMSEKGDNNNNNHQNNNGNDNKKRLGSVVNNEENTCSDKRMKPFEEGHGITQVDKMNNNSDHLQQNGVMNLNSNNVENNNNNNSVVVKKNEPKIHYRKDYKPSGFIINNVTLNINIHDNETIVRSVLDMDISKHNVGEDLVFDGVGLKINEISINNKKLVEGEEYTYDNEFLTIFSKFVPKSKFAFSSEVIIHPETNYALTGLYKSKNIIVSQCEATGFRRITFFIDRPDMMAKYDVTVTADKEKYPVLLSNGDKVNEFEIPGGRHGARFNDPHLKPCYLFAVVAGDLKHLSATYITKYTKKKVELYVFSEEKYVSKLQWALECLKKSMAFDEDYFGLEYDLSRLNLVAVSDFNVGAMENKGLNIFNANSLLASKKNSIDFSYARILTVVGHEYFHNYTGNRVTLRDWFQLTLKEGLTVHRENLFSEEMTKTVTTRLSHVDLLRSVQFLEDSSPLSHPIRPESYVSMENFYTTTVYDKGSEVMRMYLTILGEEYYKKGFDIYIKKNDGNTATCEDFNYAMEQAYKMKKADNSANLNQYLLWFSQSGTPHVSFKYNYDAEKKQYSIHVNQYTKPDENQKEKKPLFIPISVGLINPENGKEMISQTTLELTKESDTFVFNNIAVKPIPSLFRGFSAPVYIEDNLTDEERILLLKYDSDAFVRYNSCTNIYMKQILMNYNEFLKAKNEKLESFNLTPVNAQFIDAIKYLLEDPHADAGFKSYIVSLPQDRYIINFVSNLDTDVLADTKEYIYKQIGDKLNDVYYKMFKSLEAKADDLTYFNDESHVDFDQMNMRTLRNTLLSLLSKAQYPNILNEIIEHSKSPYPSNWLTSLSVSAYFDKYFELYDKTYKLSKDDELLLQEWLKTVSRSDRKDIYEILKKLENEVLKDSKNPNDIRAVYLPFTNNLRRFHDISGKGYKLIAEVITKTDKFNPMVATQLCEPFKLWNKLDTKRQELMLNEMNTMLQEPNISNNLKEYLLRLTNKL

[6] = molecular target: Sphingosine 1-phosphate receptor 1 (Homo sapiens, UniProt P21453); assay: Fluorescence-based counterscreen assay for S1P4 agonists: Cell-based dose response high throughput screening assay to identify agonists of the Sphingosine 1-Phosphate Receptor 1 (S1P1). [Related pubchem assays (depositor defined):AID1509, AID1523, AID1801, AID463107, AID463118, AID463119, AID463122, AID463123, AID463129, AID463225, AID504400, AID504460]; type: functional
[7] = molecular target: Sphingosine 1-phosphate receptor 4 (Homo sapiens, UniProt O95977); assay: Fluorescence dose response cell-based high throughput screening assay for agonists of the Sphingosine 1-Phosphate Receptor 4 (S1P4). [Related pubchem assays: 1509 (Primary screen.), 1523 (Confirmation screen in triplicates.)]; type: functional
[8] = molecular target: Voltage-dependent T-type calcium channel subunit alpha-1H (Homo sapiens, UniProt O95180); assay: inhibition of CACNA1H calcium flux – cell-based, SynthLib3 library, HEK293 Cav3.2, fluorescence (AID 493041); type: functional
[9] = molecular target: T5, Intestinal-type alkaline phosphatase (Homo sapiens, UniProt P09923); assay: activation of human intestinal alkaline phosphatase – biochemical, dose response (AID 488873); type: functional
[10] = molecular target: T5, Intestinal-type alkaline phosphatase; assay: inhibition of human intestinal alkaline phosphatase – biochemical, luminescent, uHTS hits, set 2, dose response (AID 488793); type: functional
[11] = molecular target: T6, Alkaline phosphatase, tissue-nonspecific isozyme (Homo sapiens, UniProt P05186); assay: TNAP enzyme inhibition by screening hits, dose response, selectivity assay for mouse IAP inhibitor project, biochemical, human TNAP, uHTS hits (AID 488906); type: functional
T6 sequence (P05186 whole entry): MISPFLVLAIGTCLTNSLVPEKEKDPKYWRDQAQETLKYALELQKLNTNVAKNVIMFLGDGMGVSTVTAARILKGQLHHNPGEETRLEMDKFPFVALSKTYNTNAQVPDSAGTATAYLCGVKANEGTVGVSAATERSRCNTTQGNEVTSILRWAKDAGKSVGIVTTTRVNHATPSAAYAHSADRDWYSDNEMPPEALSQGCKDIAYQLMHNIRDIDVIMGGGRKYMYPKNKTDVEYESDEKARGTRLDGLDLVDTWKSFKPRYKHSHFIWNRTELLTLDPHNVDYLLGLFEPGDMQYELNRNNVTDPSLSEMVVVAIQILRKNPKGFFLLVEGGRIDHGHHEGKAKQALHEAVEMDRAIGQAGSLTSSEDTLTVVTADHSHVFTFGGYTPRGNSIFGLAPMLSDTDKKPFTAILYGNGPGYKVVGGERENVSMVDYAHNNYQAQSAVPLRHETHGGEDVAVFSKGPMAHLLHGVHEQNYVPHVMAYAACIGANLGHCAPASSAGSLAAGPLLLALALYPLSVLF

Cytochrome P450 3A4 = Cytochrome P450 3A4 (Homo sapiens, UniProt P08684);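 note: CYP3A4 tested as one member of a cytochrome P450 panel screen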
[12] = molecular target: T6, Alkaline phosphatase, tissue-nonspecific isozyme; assay: inhibition of tissue-nonspecific alkaline phosphatase – biochemical, dose response (AID 488882); type: functional
[13] = molecular target: 1-phosphatidylinositol 4,5-bisphosphate phosphodiesterase gamma-1 (Homo sapiens, UniProt P19174); assay: Counterscreen for inhibitors of phospholipase C isozymes (PLC-B3): Fluorescence-based biochemical high throughput dose response assay to identify inhibitors of phospholipase C isozymes (PLC-gamma1).
[14] = molecular target: T5, Intestinal-type alkaline phosphatase; assay: Dose Response confirmation of uHTS hits from a small molecule inhibitors of human intestinal alkaline phosphatase via a luminescent assay. [Related pubchem assays (depositor defined):AID2544, AID2574]; type: functional
[15] = molecular target: 1-phosphatidylinositol 4,5-bisphosphate phosphodiesterase beta-3 (Homo sapiens, UniProt Q01970); assay: Fluorescence-based biochemical high throughput dose response assay to identify inhibitors of phospholipase C isozymes (PLC-B3).
Large T antigen = Large T antigen (Simian virus 40, UniProt P03070); type: functional, Betapolyomavirus macacae;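 note: Confirmatory-stage PubChem screen for compounds that inhibit SV40 T antigen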
[16] = molecular target: T7, Intestinal-type alkaline phosphatase (Mus musculus, UniProt P24822); assay: PubChem AID 488785; type: functional
[17] = molecular target: T7, Intestinal-type alkaline phosphatase; assay: PubChem AID 488874; type: functional
[18] = molecular target: Kappa-type opioid receptor (Homo sapiens, UniProt P41145); assay: SAR analysis of small molecule agonists of the kappa opioid receptor via a luminescent beta-arrestin assay - Set 3. [Related pubchem assays (depositor defined):AID1777, AID1785, AID1786, AID1966, AID2133, AID2136, AID2284, AID2500]; type: functional
[19] = Counterscreen for AddAB inhibitors: absorbance-based bacterial cell-based high throughput dose response assay for inhibitors of bacterial viability. [Related pubchem assays (depositor defined):AID435030, AID449728, AID449731, AID488942, AID488955, AID488956]; type: functional
Exodeoxyribonuclease V = Exodeoxyribonuclease V (Escherichia coli (strain K12), UniProt P04993+P07648+P08394); assay: RecBCD inhibition via phage-restricted bacterial growth – absorbance, V66 E. coli, mutant T4 phage, counter-screen for AddAB inhibitor project, dose response (AID 492957); type: functional, cell-based, Escherichia coli str. K-12 substr. MG1655

T5 sequence (P09923 whole entry): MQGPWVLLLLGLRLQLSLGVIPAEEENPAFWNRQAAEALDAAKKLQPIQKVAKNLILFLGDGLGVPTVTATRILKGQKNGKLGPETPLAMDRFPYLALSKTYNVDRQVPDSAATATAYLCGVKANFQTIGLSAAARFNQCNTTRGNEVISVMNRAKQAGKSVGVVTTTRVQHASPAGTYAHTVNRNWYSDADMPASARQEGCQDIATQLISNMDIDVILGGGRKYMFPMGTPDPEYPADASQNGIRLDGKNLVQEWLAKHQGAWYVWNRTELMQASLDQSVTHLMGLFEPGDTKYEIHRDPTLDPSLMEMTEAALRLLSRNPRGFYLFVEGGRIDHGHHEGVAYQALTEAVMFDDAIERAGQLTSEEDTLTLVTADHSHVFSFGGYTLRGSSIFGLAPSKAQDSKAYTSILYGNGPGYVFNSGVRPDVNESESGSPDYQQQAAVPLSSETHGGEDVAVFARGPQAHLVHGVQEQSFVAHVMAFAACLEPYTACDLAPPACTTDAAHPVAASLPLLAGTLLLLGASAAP
T7 sequence (P24822 whole entry): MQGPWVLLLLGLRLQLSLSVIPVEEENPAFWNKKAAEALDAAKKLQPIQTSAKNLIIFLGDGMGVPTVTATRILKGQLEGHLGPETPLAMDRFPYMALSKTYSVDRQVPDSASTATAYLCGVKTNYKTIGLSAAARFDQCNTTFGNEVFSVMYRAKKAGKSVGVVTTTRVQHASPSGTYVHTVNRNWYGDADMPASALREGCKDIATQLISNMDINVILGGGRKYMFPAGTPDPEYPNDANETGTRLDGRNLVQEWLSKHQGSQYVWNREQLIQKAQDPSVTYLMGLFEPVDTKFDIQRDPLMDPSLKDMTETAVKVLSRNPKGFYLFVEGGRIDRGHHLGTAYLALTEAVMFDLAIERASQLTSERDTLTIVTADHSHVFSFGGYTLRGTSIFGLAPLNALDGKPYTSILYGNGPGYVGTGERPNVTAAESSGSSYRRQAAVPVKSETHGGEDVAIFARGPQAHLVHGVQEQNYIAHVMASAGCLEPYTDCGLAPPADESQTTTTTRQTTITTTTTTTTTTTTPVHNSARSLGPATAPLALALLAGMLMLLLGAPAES
Sequence of Sphingosine 1-phosphate receptor 4 (O95977 whole entry): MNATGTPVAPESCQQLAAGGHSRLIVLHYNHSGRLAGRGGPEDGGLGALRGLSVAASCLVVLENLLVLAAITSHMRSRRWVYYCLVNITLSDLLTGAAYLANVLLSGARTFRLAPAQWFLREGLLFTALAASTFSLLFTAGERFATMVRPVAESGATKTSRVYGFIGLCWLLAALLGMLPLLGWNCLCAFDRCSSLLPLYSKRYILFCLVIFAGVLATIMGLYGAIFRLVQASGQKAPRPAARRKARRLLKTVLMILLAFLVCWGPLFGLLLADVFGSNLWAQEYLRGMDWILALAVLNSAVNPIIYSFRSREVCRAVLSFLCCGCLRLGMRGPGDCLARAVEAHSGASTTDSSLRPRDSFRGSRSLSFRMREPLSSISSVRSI
Sequence of Sphingosine 1-phosphate receptor 1 (P21453 whole entry): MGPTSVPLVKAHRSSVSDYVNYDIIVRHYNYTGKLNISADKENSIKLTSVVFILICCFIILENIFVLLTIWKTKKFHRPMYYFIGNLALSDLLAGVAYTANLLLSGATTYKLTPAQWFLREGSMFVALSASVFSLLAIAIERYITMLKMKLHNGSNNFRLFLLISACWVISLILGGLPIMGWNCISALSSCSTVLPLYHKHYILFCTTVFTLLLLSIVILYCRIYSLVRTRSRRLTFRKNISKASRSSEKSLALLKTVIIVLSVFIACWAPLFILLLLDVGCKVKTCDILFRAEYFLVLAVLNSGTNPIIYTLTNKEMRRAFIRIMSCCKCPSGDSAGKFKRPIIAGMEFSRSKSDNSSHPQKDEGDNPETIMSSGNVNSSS
Sequence of 1-phosphatidylinositol 4,5-bisphosphate phosphodiesterase gamma-1 (P19174 whole entry): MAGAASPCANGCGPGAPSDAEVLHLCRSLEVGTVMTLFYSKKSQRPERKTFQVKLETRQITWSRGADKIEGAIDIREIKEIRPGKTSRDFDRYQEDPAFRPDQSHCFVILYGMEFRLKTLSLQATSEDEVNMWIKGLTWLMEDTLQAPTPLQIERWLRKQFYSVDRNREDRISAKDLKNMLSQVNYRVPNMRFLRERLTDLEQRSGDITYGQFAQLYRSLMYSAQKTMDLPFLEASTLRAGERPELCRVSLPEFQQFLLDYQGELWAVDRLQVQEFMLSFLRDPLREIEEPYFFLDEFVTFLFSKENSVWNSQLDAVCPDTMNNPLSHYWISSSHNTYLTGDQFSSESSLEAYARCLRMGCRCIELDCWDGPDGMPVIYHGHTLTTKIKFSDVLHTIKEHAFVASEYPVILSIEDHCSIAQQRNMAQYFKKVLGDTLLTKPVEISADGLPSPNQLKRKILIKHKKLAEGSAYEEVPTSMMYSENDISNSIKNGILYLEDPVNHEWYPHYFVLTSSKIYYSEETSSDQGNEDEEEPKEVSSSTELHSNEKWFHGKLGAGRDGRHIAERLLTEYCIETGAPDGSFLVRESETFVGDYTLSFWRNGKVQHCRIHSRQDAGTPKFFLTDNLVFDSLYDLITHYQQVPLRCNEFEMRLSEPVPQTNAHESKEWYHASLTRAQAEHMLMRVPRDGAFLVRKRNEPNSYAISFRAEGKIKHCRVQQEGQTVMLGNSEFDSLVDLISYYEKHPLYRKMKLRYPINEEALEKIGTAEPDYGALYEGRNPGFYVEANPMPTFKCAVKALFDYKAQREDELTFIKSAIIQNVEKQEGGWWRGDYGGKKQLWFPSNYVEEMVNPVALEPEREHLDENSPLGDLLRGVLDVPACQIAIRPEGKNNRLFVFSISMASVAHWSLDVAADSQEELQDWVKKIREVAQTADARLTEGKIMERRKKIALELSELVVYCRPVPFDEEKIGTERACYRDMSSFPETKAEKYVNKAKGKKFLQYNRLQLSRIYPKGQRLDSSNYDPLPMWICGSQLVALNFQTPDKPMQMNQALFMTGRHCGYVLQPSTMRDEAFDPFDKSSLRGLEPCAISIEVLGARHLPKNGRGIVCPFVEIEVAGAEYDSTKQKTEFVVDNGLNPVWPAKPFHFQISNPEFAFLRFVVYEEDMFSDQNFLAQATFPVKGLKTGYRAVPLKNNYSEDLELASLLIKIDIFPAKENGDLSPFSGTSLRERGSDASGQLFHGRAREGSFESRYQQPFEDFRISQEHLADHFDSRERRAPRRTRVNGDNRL
Sequence of Large T antigen (P03070 whole entry): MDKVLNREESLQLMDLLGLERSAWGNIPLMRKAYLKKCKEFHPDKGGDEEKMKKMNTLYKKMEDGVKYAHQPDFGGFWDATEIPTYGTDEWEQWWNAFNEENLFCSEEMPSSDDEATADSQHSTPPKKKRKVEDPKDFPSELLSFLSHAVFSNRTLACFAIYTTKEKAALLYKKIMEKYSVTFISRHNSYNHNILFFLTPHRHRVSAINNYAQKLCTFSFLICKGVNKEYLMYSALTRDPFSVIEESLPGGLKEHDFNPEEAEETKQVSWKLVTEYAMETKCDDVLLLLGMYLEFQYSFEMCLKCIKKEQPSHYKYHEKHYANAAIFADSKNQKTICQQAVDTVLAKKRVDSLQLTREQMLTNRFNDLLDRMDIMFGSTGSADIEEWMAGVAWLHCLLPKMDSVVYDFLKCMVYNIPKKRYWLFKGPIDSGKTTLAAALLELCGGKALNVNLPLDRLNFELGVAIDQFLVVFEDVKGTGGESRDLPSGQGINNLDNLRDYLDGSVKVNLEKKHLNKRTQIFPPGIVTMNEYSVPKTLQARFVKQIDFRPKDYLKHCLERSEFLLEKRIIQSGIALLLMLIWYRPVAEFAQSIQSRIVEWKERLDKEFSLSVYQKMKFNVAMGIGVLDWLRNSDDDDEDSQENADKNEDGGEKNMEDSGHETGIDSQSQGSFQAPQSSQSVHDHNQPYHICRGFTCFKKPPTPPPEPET
Sequence of Cytochrome P450 3A4 (P08684 whole entry): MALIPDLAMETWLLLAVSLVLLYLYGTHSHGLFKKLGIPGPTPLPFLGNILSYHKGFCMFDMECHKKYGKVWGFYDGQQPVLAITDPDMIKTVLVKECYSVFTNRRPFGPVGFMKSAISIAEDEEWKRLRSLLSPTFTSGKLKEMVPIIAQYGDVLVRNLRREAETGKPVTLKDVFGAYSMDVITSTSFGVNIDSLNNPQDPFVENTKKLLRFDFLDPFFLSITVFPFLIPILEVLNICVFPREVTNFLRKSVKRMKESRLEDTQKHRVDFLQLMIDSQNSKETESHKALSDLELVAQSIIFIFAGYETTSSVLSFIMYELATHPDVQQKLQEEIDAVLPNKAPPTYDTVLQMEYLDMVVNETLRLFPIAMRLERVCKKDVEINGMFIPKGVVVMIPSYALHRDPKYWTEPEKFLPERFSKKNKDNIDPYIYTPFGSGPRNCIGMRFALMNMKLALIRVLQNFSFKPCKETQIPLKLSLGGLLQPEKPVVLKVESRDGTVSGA
Sequence of Kappa-type opioid receptor (P41145 whole entry): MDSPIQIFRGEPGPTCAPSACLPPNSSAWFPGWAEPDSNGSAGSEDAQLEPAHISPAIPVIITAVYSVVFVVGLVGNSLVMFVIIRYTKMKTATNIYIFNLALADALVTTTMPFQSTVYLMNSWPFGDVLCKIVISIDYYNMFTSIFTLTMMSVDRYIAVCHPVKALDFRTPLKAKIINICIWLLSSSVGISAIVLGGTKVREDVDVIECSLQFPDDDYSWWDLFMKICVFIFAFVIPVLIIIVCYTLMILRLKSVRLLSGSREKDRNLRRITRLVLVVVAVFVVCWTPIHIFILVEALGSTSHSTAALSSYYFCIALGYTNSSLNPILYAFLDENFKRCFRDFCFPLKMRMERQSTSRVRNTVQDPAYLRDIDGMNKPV

Fc1ccc(Nc2nc(NCc3ccco3)c3ccccc3n2)cc1
IC50 [1]: 1.93 µM (active) | EC50 (Protein RecA): 8.32 µM (active) | IC50 [2]: 1.7 µM (active) | AC50 [3]: 1.93 µM (active) | IC50 [4]: > 20 µM (inactive)

CC(C)n1c(=N)c(C(=O)NCCc2ccccc2)cc2c(=O)n3ccccc3nc21
EC50 [5]: 4.8 µM (active) | IC50 (Aminopeptidase N): 58.6 µM (active) | EC50 [6]: 15.9 µM (inactive) | EC50 [7]: 5.78 µM (active)

CCC(CC)CN1C[C@@H]2C(CNC(=O)c3cc(Cl)cc(Cl)c3)[C@@H]2C1 (some centres undefined)
EC50 [8]: 1.2 µM (active)

COc1cc(/C=C(\C#N)C(=O)c2ccc(O)c(O)c2)cc(I)c1O
EC50 [9]: > 100 µM (inactive) | IC50 [10]: 4.56 µM (active) | IC50 [11]: > 100 µM (inactive) | AC50 (Cytochrome P450 3A4): 12.6 µM (inconclusive) | IC50 [12]: 5.88 µM (active) | IC50 [13]: > 122 µM (inactive) | IC50 [14]: 7.31 µM (active) | IC50 [15]: > 122 µM (inactive) | IC50 (Large T antigen): 7.17 µM (active) | IC50 [16]: 5.7 µM (active) | IC50 [17]: < 0.195 µM (active)

CCCCN(Cc1cc2cc(Cl)ccc2[nH]c1=O)C(=O)c1ccccc1
EC50 [18]: > 20 µM (inactive)

CCOc1ccc2oc(C(=O)NNC(=O)c3ccccc3O)c(C)c2c1
IC50 [19]: > 119 µM (inactive) | IC50 (Exodeoxyribonuclease V): > 119 µM (inactive)
